Experimental data: patent publication US20220162192A1 (ESCAPE Bio, Inc., priority 2019, published 2022)
Read-outs that look alike come from different tables or passages of the source.

What was measured:
[1] = molecular target: T1, Recombinant wild type LRRK2 protein (Homo sapiens, UniProt Q5S007); test: LanthaScreen Kinase Activity Assay (TR-FRET), wild type LRRK2; assay type: biochemical; conditions: 25 μM ATP, 400 nM LRRKtide, 2.9 nM kinase, 60 min at room temperature, read-out: LRRK2 WT IC50
T1 construct: purchased Life Technologies PR8604B
Experimental: (§1) LRRK2 kinase activity was measured using a LanthaScreen™ Kinase Activity Assay from ThermoFisher Scientific. Recombinant wild type or G2019S-LRRK2 protein (Life Technologies, PR8604B or PV4881, respectively), was incubated with a fluorescein-labeled peptide substrate called LRRKtide that is based upon ezrin/radixin/moesin (ERM) (Life Technologies, PV4901) in the presence of ATP and serially diluted compound. After an incubation period of 1 hr, the phosphotransferase activity was stopped and a terbium-labelled anti-pERM antibody (Life Technologies, PV4899) was added to detect the phosphorylation of LRRKtide by measuring the time resolved-Forster resonant energy transfer (TR-FRET) signal from the terbium label on the antibody to the fluorescein tag on LRRKtide, expressed as the 520 nm/495 nm emission ratio. Compound-dependent inhibition of the TR-FRET signal was used to generate a concentration-response curve for IC50 determination.
(§2) The assay was carried out under the following protocol conditions: 1 mM compound in DMSO was serially diluted 1:3, 11 points in DMSO with a Biomek FX and 0.1 μL of the diluted compound was subsequently stamped into the assay plate (384-well format Lumitrac 200, Greiner, 781075) with an Echo Labcyte such that the final compound concentration in the assay was 10 μM to […]. Subsequently, 5 μL of 2× kinase solution (2.9 nM final concentration) was added to the assay plate in assay buffer composed of 50 mM Tris pH 8.5 (Sigma, T6791), 5 mM MgCl2 (Fluka, 63020), 1 mM EGTA (Sigma, E3889), 0.01% BRIJ-35 (Sigma, P1254) and 2 mM DTT. The reaction was started by addition of 2×ATP/LRRKtide solution in assay buffer such that the final concentration was 400 nM LRRKtide and 25 μM ATP. After 60 min incubation at room temperature, the reaction was stopped by addition of […] containing a final concentration of 2 nM anti-pERM antibody and 10 mM EDTA. After a 30 min incubation at RT, the TR-FRET signal was measured on a Wallac 2104 EnVision® multilabel reader at an excitation wavelength of 340 nm and reading emission at 520 nm and 495 nm. The ratio of the 520 nm and 495 nm emission was used to analyze the data.

[2] = molecular target: T2, Recombinant G2019S-LRRK2 protein (Homo sapiens, UniProt Q5S007, G2019S); test: LanthaScreen Kinase Activity Assay (TR-FRET), G2019S-LRRK2; assay type: biochemical; conditions: class symbols; 25 μM ATP, 400 nM LRRKtide, 2.9 nM kinase, 60 min at room temperature
T2 construct: purchased Life Technologies PV4881
Experimental: as §1, §2

[3] = numeric bound instead of class symbol

T2 sequence (Q5S007 whole entry G2019S): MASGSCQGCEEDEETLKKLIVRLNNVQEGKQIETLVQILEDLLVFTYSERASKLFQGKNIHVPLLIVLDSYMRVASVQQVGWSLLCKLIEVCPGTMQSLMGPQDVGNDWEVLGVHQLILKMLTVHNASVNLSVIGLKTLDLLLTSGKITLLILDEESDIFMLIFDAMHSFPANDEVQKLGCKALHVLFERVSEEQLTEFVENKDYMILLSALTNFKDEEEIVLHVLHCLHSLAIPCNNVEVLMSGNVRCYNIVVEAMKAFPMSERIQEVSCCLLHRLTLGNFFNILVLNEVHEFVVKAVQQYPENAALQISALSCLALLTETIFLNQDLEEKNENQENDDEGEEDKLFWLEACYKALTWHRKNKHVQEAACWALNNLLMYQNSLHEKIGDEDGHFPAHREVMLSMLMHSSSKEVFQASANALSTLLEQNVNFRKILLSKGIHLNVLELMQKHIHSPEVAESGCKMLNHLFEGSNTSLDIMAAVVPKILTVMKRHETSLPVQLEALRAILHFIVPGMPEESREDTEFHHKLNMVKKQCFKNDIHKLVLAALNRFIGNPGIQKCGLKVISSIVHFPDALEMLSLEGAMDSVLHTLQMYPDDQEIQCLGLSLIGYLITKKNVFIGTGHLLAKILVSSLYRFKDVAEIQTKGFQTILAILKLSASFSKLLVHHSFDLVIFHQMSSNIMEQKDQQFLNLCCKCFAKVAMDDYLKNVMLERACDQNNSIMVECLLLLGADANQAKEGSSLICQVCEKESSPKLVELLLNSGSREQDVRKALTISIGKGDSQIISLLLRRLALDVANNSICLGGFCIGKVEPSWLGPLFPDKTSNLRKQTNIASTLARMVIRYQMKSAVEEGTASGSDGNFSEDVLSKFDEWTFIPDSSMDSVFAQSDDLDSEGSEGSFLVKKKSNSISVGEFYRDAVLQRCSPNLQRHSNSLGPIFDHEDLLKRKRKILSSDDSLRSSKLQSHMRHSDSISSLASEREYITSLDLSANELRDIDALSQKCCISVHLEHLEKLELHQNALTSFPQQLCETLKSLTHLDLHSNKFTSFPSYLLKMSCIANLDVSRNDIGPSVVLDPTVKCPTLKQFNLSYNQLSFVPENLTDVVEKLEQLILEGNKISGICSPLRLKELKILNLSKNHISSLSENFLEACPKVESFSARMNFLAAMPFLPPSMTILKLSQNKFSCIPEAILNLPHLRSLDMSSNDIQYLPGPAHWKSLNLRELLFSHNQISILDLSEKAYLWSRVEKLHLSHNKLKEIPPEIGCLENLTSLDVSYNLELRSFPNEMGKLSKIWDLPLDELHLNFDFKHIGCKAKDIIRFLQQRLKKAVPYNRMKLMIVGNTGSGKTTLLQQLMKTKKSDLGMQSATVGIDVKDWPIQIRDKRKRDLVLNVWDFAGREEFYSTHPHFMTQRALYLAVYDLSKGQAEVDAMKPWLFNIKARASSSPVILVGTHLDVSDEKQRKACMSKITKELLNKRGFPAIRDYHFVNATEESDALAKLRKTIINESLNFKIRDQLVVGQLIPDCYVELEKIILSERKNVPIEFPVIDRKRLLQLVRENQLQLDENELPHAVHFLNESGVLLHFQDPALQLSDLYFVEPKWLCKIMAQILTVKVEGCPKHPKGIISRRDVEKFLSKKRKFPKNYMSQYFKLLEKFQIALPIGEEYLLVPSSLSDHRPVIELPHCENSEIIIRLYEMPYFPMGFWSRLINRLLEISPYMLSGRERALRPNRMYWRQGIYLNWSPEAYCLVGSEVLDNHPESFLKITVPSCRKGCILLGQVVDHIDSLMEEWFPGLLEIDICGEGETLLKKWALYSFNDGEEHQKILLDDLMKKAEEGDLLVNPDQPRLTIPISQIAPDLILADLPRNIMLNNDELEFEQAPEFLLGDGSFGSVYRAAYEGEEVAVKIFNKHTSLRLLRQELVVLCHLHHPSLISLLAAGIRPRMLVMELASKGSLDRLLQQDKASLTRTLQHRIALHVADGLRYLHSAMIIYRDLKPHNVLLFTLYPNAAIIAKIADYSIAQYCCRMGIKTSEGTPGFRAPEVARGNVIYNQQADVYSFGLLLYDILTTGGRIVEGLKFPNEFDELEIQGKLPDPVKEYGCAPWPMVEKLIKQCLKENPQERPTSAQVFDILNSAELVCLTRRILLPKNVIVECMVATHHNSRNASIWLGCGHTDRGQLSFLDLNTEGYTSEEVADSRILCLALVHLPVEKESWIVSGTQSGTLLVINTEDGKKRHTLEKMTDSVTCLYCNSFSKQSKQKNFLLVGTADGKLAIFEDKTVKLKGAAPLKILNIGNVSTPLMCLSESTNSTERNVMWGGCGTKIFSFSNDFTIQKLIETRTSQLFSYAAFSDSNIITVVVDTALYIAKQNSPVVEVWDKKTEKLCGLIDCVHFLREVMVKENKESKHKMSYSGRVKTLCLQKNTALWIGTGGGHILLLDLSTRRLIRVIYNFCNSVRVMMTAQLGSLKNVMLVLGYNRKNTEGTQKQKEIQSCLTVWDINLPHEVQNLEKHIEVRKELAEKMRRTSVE
T1 sequence (Q5S007 whole entry): as the sequence (Q5S007 whole entry G2019S) above, with S2019G counted along it

## Cn1ncc2c(F)c(C(=O)Nc3ccc4[nH]nc(NCc5ccccc5)c4c3)c(F)cc21 [Example 110, N-(3-(Benzylamino)-1H-indazol-5-yl)-4,6-difluoro-1-methyl-1H-indazole-5-carboxamide]
[1]; class symbols
  IC50: 100 to 1000 nM
[2]
  IC50: ≤ 100 nM

## Cn1ncc2c(F)c(C(=O)Nc3ccc4[nH]nc(C#N)c4c3)c(F)cc21 [Example 105, N-(3-Cyano-1H-indazol-5-yl)-4,6-difluoro-1-methyl-1H-indazole-5-carboxamide]
[1]; class symbols
  IC50: 100 to 1000 nM
[2]
  IC50: ≤ 100 nM

## O=C(Nc1ccc2[nH]nc(-c3ccoc3)c2c1)c1cnc2nccn2c1 [Example 129, N-(3-(Furan-3-yl)-1H-indazol-5-yl)imidazo[1,2-a]pyrimidine-6-carboxamide]
[1]; class symbols
  IC50: 100 to 1000 nM
[2]
  IC50: ≤ 100 nM

## Cc1c(C(=O)Nc2ccc3[nH]nc(-c4ccccc4)c3c2)ccn2nncc12 [Example 149, 4-Methyl-N-(3-phenyl-1H-indazol-5-yl)-[1,2,3]triazolo[1,5-a]pyridine-5-carboxamide]
[1]; class symbols
  IC50: ≤ 100 nM
[2]
  IC50: ≤ 100 nM

## Cn1ncc2c(F)c(C(=O)Nc3ccc4[nH]nc(N5CC(C(=O)O)C5)c4c3)c(F)cc21 [Example 142, 1-(5-(4,6-difluoro-1-methyl-1H-indazole-5-carboxamido)-1H-indazol-3-yl)azetidine-3-carboxylic acid]
[1]; [3]
  IC50: > 10000 nM
[2]
  IC50: 1000 to 10000 nM

## Cc1nc2ccc(C(=O)Nc3ccc4[nH]nc(-c5ccoc5)c4c3)cc2o1 [Example 134, N-(3-(Furan-3-yl)-1H-indazol-5-yl)-2-methylbenzo[d]oxazole-6-carboxamide]
[1]; class symbols
  IC50: 100 to 1000 nM
[2]
  IC50: ≤ 100 nM

## Cc1cc2cnnn2c(C)c1C(=O)Nc1ccc2[nH]nc(-c3ccccc3)c2c1 [Example 48, 5,7-Dimethyl-N-(3-phenyl-1H-indazol-5-yl)-[1,2,3]triazolo[1,5-a]pyridine-6-carboxamide]
[1]; class symbols
  IC50: ≤ 100 nM
[2]
  IC50: ≤ 100 nM

## Cc1cc2cnnn2c(C)c1C(=O)Nc1ccc2[nH]nc(-c3ccccc3F)c2c1 [Example 44, N-(3-(2-Fluorophenyl)-1H-indazol-5-yl)-5,7-dimethyl-[1,2,3]triazolo[1,5-a]pyridine-6-carboxamide]
[1]; class symbols
  IC50: 100 to 1000 nM
[2]
  IC50: ≤ 100 nM

## COc1ccc(C)cc1-c1n[nH]c2ccc(NC(=O)c3c(F)cc4c(cnn4C)c3F)cc12 [Example 89, 4,6-Difluoro-N-(3-(2-methoxy-5-methylphenyl)-1H-indazol-5-yl)-1-methyl-1H-indazole-5-carboxamide]
[1]; class symbols
  IC50: 100 to 1000 nM
[2]
  IC50: ≤ 100 nM

## Cc1cc2cncn2c(C)c1C(=O)Nc1ccc2[nH]nc(-c3ccccc3)c2c1 [Example 69, 5,7-Dimethyl-N-(3-phenyl-1H-indazol-5-yl)imidazo[1,5-a]pyridine-6-carboxamide]
[1]; class symbols
  IC50: ≤ 100 nM
[2]
  IC50: ≤ 100 nM

## Cc1n[nH]c2ccc(NC(=O)c3cc4nn[nH]c4cc3C(F)(F)F)cc12 [Example 10, N-(3-Methyl-1H-indazol-5-yl)-6-(trifluoromethyl)-1H-benzo[d][1,2,3]triazole-5-carboxamide]
[1]; [3]
  IC50: > 10000 nM
[2]
  IC50: 1000 to 10000 nM

## Cc1cn2cncc2cc1C(=O)Nc1ccc2[nH]nc(-c3ccco3)c2c1 [Example 154, N-(3-(Furan-2-yl)-1H-indazol-5-yl)-6-methylimidazo[1,5-a]pyridine-7-carboxamide]
[1]; class symbols
  IC50: ≤ 100 nM
[2]
  IC50: ≤ 100 nM

## Cn1ncc2c(F)c(C(=O)Nc3ccc4[nH]nc(-c5cnn(C(F)F)c5)c4c3)c(F)cc21 [Example 86, N-(3-(1-(Difluoromethyl)-1H-pyrazol-4-yl)-1H-indazol-5-yl)-4,6-difluoro-1-methyl-1H-indazole-5-carboxamide]
[1]; class symbols
  IC50: ≤ 100 nM
[2]
  IC50: ≤ 100 nM

## Cc1cc(-c2n[nH]c3ccc(NC(=O)c4c(F)cc5c(cnn5C)c4F)cc23)n(C)n1 [Example 79, N-(3-(1,3-Dimethyl-1H-pyrazol-5-yl)-1H-indazol-5-yl)-4,6-difluoro-1-methyl-1H-indazole-5-carboxamide]
[1]; class symbols
  IC50: 1000 to 10000 nM
[2]
  IC50: 100 to 1000 nM

## Cn1ncc2c(F)c(C(=O)Nc3ccc4[nH]nc(-c5cnccc5C(F)(F)F)c4c3)c(F)cc21 [Example 91, 4,6-Difluoro-1-methyl-N-(3-(4-(trifluoromethyl)pyridin-3-yl)-1H-indazol-5-yl)-1H-indazole-5-carboxamide]
[1]; class symbols
  IC50: 1000 to 10000 nM
[2]
  IC50: 100 to 1000 nM

## Cc1c(C(=O)Nc2ccc3[nH]nc(-c4cnco4)c3c2)ncc2c1cnn2C [Example 169, 1,4-Dimethyl-N-(3-(oxazol-5-yl)-1H-indazol-5-yl)-1H-pyrazolo[3,4-c]pyridine-5-carboxamide]
[1]; class symbols
  IC50: 100 to 1000 nM
[2]
  IC50: ≤ 100 nM

## Cc1cc2nn(C)nc2cc1C(=O)Nc1ccc2[nH]nc(C)c2c1 [Example 3, 2,6-Dimethyl-N-(3-methyl-1H-indazol-5-yl)-2H-benzo[d][1,2,3]triazole-5-carboxamide]
[1]; class symbols
  IC50: 1000 to 10000 nM
[2]
  IC50: 1000 to 10000 nM

## Cc1cc2[nH]nnc2c(C)c1C(=O)Nc1ccc2[nH]nc(C)c2c1 [Example 11, 4,6-Dimethyl-N-(3-methyl-1H-indazol-5-yl)-1H-benzo[d][1,2,3]triazole-5-carboxamide]
[1]; class symbols
  IC50: 1000 to 10000 nM
[2]
  IC50: 100 to 1000 nM

## Cc1nc2cncn2c(C)c1C(=O)Nc1ccc2[nH]nc(I)c2c1 [Example 111, N-(3-Iodo-1H-indazol-5-yl)-2,4-dimethylimidazo[1,5-a]pyrimidine-3-carboxamide]
[1]; class symbols
  IC50: ≤ 100 nM
[2]
  IC50: ≤ 100 nM

## O=C(Nc1ccc2[nH]nc(-c3ccoc3)c2c1)c1cc2ncccc2s1 [Example 125, N-(3-(Furan-3-yl)-1H-indazol-5-yl)thieno[3,2-b]pyridine-2-carboxamide]
[1]; class symbols
  IC50: 100 to 1000 nM
[2]
  IC50: ≤ 100 nM

## Cc1cc2cnnn2c(C)c1C(=O)Nc1ccc2[nH]nc(-c3ccoc3)c2c1 [Example 150, N-(3-(Furan-3-yl)-1H-indazol-5-yl)-5,7-dimethyl-[1,2,3]triazolo[1,5-a]pyridine-6-carboxamide]
[1]; class symbols
  IC50: ≤ 100 nM
[2]
  IC50: ≤ 100 nM

## O=C(Nc1ccc2[nH]nc(-c3ccoc3)c2c1)c1ccn2nccc2c1 [Example 117, N-(3-(Furan-3-yl)-1H-indazol-5-yl)pyrazolo[1,5-a]pyridine-5-carboxamide]
[1]; class symbols
  IC50: 100 to 1000 nM
[2]
  IC50: ≤ 100 nM

## Cn1ncc2c(F)c(C(=O)Nc3ccc4[nH]nc(-c5ccccc5F)c4c3)c(F)cc21 [Example 78, 4,6-Difluoro-N-(3-(2-fluorophenyl)-1H-indazol-5-yl)-1-methyl-1H-indazole-5-carboxamide]
[1]; class symbols
  IC50: 100 to 1000 nM
[2]
  IC50: ≤ 100 nM

## Cc1cc2cn[nH]c2cc1C(=O)Nc1ccc2[nH]nc(-c3ccccc3)c2c1 [Example 23, 5-Methyl-N-(3-phenyl-1H-indazol-5-yl)-1H-indazole-6-carboxamide]
[1]; class symbols
  IC50: ≤ 100 nM
[2]
  IC50: ≤ 100 nM

## Cc1cc2cncn2c(C)c1C(=O)Nc1ccc2[nH]nc(C)c2c1 [Example 55, 5,7-Dimethyl-N-(3-methyl-1H-indazol-5-yl)imidazo[1,5-a]pyridine-6-carboxamide]
[1]; class symbols
  IC50: 1000 to 10000 nM
[2]
  IC50: ≤ 100 nM

## O=C(Nc1ccc2[nH]nc(-c3ccoc3)c2c1)c1cn2cccnc2n1 [Example 128, N-(3-(Furan-3-yl)-1H-indazol-5-yl)imidazo[1,2-a]pyrimidine-2-carboxamide]
[1]; class symbols
  IC50: 100 to 1000 nM
[2]
  IC50: 100 to 1000 nM

## Cn1ncc2c(F)c(C(=O)Nc3ccc4[nH]nc(-c5ccncn5)c4c3)c(F)cc21 [Example 73, 4,6-Difluoro-1-methyl-N-(3-(pyrimidin-4-yl)-1H-indazol-5-yl)-1H-indazole-5-carboxamide]
[1]; class symbols
  IC50: ≤ 100 nM
[2]
  IC50: ≤ 100 nM

## Cc1ncc(-c2n[nH]c3ccc(NC(=O)c4c(F)cc5c(cnn5C)c4F)cc23)s1 [Example 95, 4,6-Difluoro-1-methyl-N-(3-(2-methylthiazol-5-yl)-1H-indazol-5-yl)-1H-indazole-5-carboxamide]
[1]; class symbols
  IC50: ≤ 100 nM
[2]
  IC50: ≤ 100 nM

## COc1n[nH]c2ccc(NC(=O)c3c(F)cc4c(cnn4C)c3F)cc12 [Example 106, 4,6-Difluoro-N-(3-methoxy-1H-indazol-5-yl)-1-methyl-1H-indazole-5-carboxamide]
[1]; class symbols
  IC50: 1000 to 10000 nM
[2]
  IC50: ≤ 100 nM

## Cc1cc2cncn2c(C)c1C(=O)Nc1ccc2[nH]nc(-c3ccoc3)c2c1 [Example 151, N-(3-(Furan-3-yl)-1H-indazol-5-yl)-5,7-dimethylimidazo[1,5-a]pyridine-6-carboxamide]
[1]; class symbols
  IC50: ≤ 100 nM
[2]
  IC50: ≤ 100 nM
